Laboratory results as given in US20170190671A1, “BIS(ARYL)CATECHOL DERIVATIVES AS HERBICIDES” (E I DU PONT DE NEMOURS AND COMPANY, priority 2014, published 2017).

Experiments:
Type in all cases: in vivo
[1] = system: wild oat (Avena fatua); experiment: Test C postemergence; settings: Avena fatua, post-emergence, Postemergence, scale 0 to 100, read-out: Plant response rating, Oat, Wild
[2] = system: waterhemp (common waterhemp, Amaranthus rudis); experiment: Test C postemergence; settings: Amaranthus tuberculatus, post-emergence, Postemergence, scale 0 to 100, read-out: Plant response rating, Waterhemp
[3] = system: kochia (Kochia scoparia); experiment: Test C postemergence; settings: Bassia scoparia, post-emergence, Postemergence, scale 0 to 100, read-out: Plant response rating, Kochia
[4] = system: wheat (Triticum aestivum); experiment: Test A postemergence; settings: Triticum aestivum, post-emergence, 240 h, 0 to 100 scale, read-out: Plant response rating, Wheat
Method in brief: (§1)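 Scoring: eye-based comparison with untreated controls, 0 for no effect through 100 for complete control, at about day 10. Treatments: directed soil spray preemergence; foliar spray postemergence on 2–10 cm plants at the one- to two-leaf stage. Medium: loam soil with sand.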

[5] = system: corn (Zea mays); experiment: Test A postemergence; settings: Zea mays, post-emergence, 240 h, 0 to 100 scale
Method in brief: as §1

[6] = system: blackgrass (Alopecurus myosuroides); experiment: Test A postemergence; settings: Alopecurus myosuroides, post-emergence, 240 h, 0 to 100 scale, read-out: Plant response rating, Blackgrass
Method in brief: as §1

[7] = system: barnyardgrass (Echinochloa crus-galli); experiment: Test A postemergence; settings: Echinochloa crus-galli, post-emergence, 240 h, 0 to 100 scale, read-out: Plant response rating, Barnyardgrass
Method in brief: as §1

[8] = system: kochia (Kochia scoparia); experiment: Test A postemergence; settings: Bassia scoparia, post-emergence, 240 h, 0 to 100 scale, read-out: Plant response rating, Kochia
Method in brief: as §1

[9] = system: Italian ryegrass (Lolium multiflorum); experiment: Test A postemergence; settings: Lolium multiflorum, post-emergence, 240 h, 0 to 100 scale, read-out: Plant response rating, Ryegrass, Italian
Method in brief: as §1

[10] = system: ragweed (common ragweed, Ambrosia elatior); experiment: Test A postemergence; settings: Ambrosia artemisiifolia, post-emergence, 240 h, 0 to 100 scale, read-out: Plant response rating, Ragweed
Method in brief: as §1

[11] = system: pigweed (Amaranthus retroflexus); experiment: Test A postemergence; settings: Amaranthus retroflexus, post-emergence, 240 h, 0 to 100 scale, read-out: Plant response rating, Pigweed
Method in brief: as §1

[12] = system: giant foxtail (Setaria faberii); experiment: Test A postemergence; settings: Setaria faberi, post-emergence, 240 h, 0 to 100 scale, read-out: Plant response rating, Foxtail, Giant
Method in brief: as §1

[13] = system: galium (catchweed bedstraw, Galium aparine); experiment: Test A postemergence; settings: Galium, post-emergence, 240 h, 0 to 100 scale, read-out: Plant response rating, Galium
Method in brief: as §1

[14] = system: barnyardgrass (Echinochloa crus-galli); experiment: Test B flooded paddy; settings: Echinochloa crus-galli, 336 h; 250 g ai/ha, Flood, 13 to 15 days, scale 0 (no effect) to 100 (complete control); read-out: Plant response rating, Barnyardgrass
Method in brief: (§2)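 Flooded 3 cm over soil; compound into paddy water; depth kept constant. Greenhouse 13–15 d.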

[15] = system: sedge, umbrella (small-flower umbrella sedge, Cyperus difformis); experiment: Test B flooded paddy; settings: Cyperus difformis, 336 h; 250 g ai/ha, Flood, 13 to 15 days, scale 0 (no effect) to 100 (complete control); read-out: Plant response rating, Sedge, Umbrella
Method in brief: as §2

[16] = system: rice (Oryza sativa); experiment: Test B flooded paddy; settings: Oryza sativa, 336 h; 250 g ai/ha, Flood, 13 to 15 days, scale 0 (no effect) to 100 (complete control); read-out: Plant response rating, Rice
Method in brief: as §2

[17] = system: ducksalad (Heteranthera limosa); experiment: Test B flooded paddy; settings: Heteranthera limosa, 336 h; 250 g ai/ha, Flood, 13 to 15 days, scale 0 (no effect) to 100 (complete control); read-out: Plant response rating, Ducksalad
Method in brief: as §2

[18] = system: barnyardgrass (Echinochloa crus-galli); experiment: Test A preemergence; settings: Echinochloa crus-galli, pre-emergence, 240 h, 0 to 100 scale (0 no effect, 100 complete control), read-out: Barnyardgrass plant response rating
Method in brief: as §1

[19] = system: kochia (Kochia scoparia); experiment: Test A preemergence; settings: Bassia scoparia, pre-emergence, 240 h, 0 to 100 scale (0 no effect, 100 complete control), read-out: Kochia plant response rating
Method in brief: as §1

[20] = system: Italian ryegrass (Lolium multiflorum); experiment: Test A preemergence; settings: Lolium multiflorum, pre-emergence, 240 h, 0 to 100 scale (0 no effect, 100 complete control), read-out: Ryegrass, Italian plant response rating
Method in brief: as §1

[21] = system: ragweed (common ragweed, Ambrosia elatior); experiment: Test A preemergence; settings: Ambrosia artemisiifolia, pre-emergence, 240 h, 0 to 100 scale (0 no effect, 100 complete control), read-out: Ragweed plant response rating
Method in brief: as §1

[22] = system: pigweed (Amaranthus retroflexus); experiment: Test A preemergence; settings: Amaranthus retroflexus, pre-emergence, 240 h, 0 to 100 scale (0 no effect, 100 complete control), read-out: Pigweed plant response rating
Method in brief: as §1

[23] = system: giant foxtail (Setaria faberii); experiment: Test A preemergence; settings: Setaria faberi, pre-emergence, 240 h, 0 to 100 scale (0 no effect, 100 complete control), read-out: Foxtail, Giant plant response rating
Method in brief: as §1

N#Cc1cccc(Oc2ncc(Cl)cn2)c1Oc1ccc(Cl)cc1 [Compound 36]
pest or weed control at 31 g/ha ([1]; 31 g ai/ha): 30%
pest or weed control at 62 g/ha ([1]; 62 g ai/ha): 20%
pest or weed control at 125 g/ha ([1]; 125 g ai/ha): 35%
pest or weed control at 31 g/ha ([2]; 31 g ai/ha): 90%
pest or weed control at 62 g/ha ([2]; 62 g ai/ha): 100%
pest or weed control at 125 g/ha ([2]; 125 g ai/ha): 98%
pest or weed control at 16 g/ha ([3]; 16 g ai/ha): 90%
pest or weed control at 31 g/ha ([3]; 31 g ai/ha): 95%
pest or weed control at 62 g/ha ([3]; 62 g ai/ha): 95%
pest or weed control at 125 g/ha ([3]; 125 g ai/ha): 100%
plant injury at 31 g/ha ([4]; 31 g ai/ha): 0%
plant injury at 125 g/ha ([4]; 125 g ai/ha): 10%
Corn plant response rating (crop injury, 0 = no effect, 100 = complete kill) at 31 g/ha ([5]; 31 g ai/ha): 20%
Corn plant response rating (crop injury, 0 = no effect, 100 = complete kill) at 125 g/ha ([5]; 125 g ai/ha): 20%
pest or weed control at 31 g/ha ([6]; 31 g ai/ha): 20%
pest or weed control at 125 g/ha ([6]; 125 g ai/ha): 40%
pest or weed control at 31 g/ha ([7]; 31 g ai/ha): 10%
pest or weed control at 125 g/ha ([7]; 125 g ai/ha): 30%
pest or weed control at 31 g/ha ([8]; 31 g ai/ha): 80%
pest or weed control at 125 g/ha ([8]; 125 g ai/ha): 100%
pest or weed control at 31 g/ha ([9]; 31 g ai/ha): 0%
pest or weed control at 125 g/ha ([9]; 125 g ai/ha): 10%
pest or weed control at 31 g/ha ([10]; 31 g ai/ha): 10%
pest or weed control at 125 g/ha ([10]; 125 g ai/ha): 20%
pest or weed control at 31 g/ha ([11]; 31 g ai/ha): 90%
pest or weed control at 125 g/ha ([11]; 125 g ai/ha): 100%
pest or weed control at 31 g/ha ([12]; 31 g ai/ha): 20%
pest or weed control at 125 g/ha ([12]; 125 g ai/ha): 50%
pest or weed control at 31 g/ha ([13]; 31 g ai/ha): 90%
pest or weed control at 125 g/ha ([13]; 125 g ai/ha): 100%
pest or weed control at 250 g/ha [14]: 0%
pest or weed control at 250 g/ha [15]: 95%
plant injury at 250 g/ha [16]: 0%
pest or weed control at 250 g/ha [17]: 65%
pest or weed control at 31 g/ha ([18]; 31 g ai/ha): 0%
pest or weed control at 125 g/ha ([18]; 125 g ai/ha): 40%
pest or weed control at 31 g/ha ([19]; 31 g ai/ha): 10%
pest or weed control at 125 g/ha ([19]; 125 g ai/ha): 50%
pest or weed control at 31 g/ha ([20]; 31 g ai/ha): 0%
pest or weed control at 125 g/ha ([20]; 125 g ai/ha): 20%
pest or weed control at 31 g/ha ([21]; 31 g ai/ha): 0%
pest or weed control at 125 g/ha ([21]; 125 g ai/ha): 0%
pest or weed control at 31 g/ha ([22]; 31 g ai/ha): 60%
pest or weed control at 125 g/ha ([22]; 125 g ai/ha): 100%
pest or weed control at 31 g/ha ([23]; 31 g ai/ha): 70%
pest or weed control at 125 g/ha ([23]; 125 g ai/ha): 90%
